# Laboratory results published in article PMC4826332 (Journal of medicinal chemistry, 2015).
# Like-named read-outs stand apart in the source and are kept apart here.
# What was measured:
# [1] = molecular target: aryl hydrocarbon receptor (AhR) (Homo sapiens, UniProt P35869); assay: Yeast AhR-signaling assay; assay type: cell-based
# [2] = tested on: HepG2 cells; assay: Alamar blue viability assay in HepG2 cells; assay type: cell-based, human
# [3] = molecular target: T1, P450 1A2 in HepG2 cells (Homo sapiens, UniProt P05177); assay: MROD assay in HepG2 cells
# T1 sequence (P05177 2-516): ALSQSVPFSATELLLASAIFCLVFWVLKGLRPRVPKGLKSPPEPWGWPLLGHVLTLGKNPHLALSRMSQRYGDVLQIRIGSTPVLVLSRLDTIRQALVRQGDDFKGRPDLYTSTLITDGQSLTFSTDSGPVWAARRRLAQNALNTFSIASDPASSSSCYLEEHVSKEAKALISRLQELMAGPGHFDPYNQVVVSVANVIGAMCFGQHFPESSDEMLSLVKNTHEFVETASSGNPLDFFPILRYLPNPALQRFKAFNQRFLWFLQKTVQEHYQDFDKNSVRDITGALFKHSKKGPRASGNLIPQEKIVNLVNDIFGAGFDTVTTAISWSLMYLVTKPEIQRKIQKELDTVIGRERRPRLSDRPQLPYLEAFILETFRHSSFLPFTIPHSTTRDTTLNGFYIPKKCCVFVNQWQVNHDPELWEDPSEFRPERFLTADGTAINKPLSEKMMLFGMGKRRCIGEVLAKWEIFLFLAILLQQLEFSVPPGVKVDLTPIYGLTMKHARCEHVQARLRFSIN
# [4] = molecular target: T2, P450 1A2 (Homo sapiens, UniProt P05177); assay: Time-dependent inhibition of P450 1A2; conditions: for KI (time-dependent inhibition of P450 1A2): Kitz-Wilson plot
# T2 sequence (P05177 1-516): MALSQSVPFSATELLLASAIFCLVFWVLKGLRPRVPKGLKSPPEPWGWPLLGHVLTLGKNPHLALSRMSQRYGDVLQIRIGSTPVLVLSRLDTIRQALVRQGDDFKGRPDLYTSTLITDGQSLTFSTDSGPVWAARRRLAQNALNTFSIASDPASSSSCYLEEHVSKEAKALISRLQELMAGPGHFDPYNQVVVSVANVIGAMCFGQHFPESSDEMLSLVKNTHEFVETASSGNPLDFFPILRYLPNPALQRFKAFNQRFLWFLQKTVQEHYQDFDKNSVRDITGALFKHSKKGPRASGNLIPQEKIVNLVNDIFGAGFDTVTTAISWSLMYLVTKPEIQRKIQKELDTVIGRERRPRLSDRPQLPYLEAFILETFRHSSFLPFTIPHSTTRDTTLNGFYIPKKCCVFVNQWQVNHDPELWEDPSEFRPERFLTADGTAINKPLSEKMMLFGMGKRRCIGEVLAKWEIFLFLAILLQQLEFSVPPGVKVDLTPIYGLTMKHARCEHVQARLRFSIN
# [5] = molecular target: T3, CYP1A2 (Homo sapiens, UniProt P05177); assay: NADPH-dependency assay, P450 1A2; conditions: human, pH 7.6, probe methoxyresorufin (MROD), 5 µM
# T3 sequence (P05177 1-516): T2 sequence (P05177 1-516)
# [6] = molecular target: T2, P450 1A2; assay: NADPH-dependency assay, P450 1A2; conditions: 10 nM inhibitor, without NADPH preincubation
# [7] = molecular target: T4, P450 1A1 (Homo sapiens, UniProt P04798); assay: NADPH-dependency assay, P450 1A1; conditions: 10 nM (0.01 μM) inhibitor, with or without 5 min NADPH preincubation
# T4 sequence (P04798 1-512): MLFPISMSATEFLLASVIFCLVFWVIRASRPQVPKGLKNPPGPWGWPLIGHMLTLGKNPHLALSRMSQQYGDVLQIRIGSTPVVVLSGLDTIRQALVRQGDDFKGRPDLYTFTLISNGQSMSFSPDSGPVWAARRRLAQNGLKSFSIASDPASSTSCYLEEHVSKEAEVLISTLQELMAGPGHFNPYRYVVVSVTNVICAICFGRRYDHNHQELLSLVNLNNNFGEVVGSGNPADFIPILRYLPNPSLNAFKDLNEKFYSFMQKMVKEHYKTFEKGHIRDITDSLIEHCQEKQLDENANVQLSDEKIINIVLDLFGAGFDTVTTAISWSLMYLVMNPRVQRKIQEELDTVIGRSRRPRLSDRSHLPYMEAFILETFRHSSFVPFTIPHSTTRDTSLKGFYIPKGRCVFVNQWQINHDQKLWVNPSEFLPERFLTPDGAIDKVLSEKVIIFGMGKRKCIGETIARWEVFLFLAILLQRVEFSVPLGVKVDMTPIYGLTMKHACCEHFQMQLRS
# [8] = molecular target: T5, P450 1B1 (Homo sapiens, UniProt Q16678); assay: NADPH-dependency assay, P450 1B1; conditions: 10 nM (0.01 μM) inhibitor, with or without 5 min NADPH preincubation
# T5 sequence (Q16678 1-543): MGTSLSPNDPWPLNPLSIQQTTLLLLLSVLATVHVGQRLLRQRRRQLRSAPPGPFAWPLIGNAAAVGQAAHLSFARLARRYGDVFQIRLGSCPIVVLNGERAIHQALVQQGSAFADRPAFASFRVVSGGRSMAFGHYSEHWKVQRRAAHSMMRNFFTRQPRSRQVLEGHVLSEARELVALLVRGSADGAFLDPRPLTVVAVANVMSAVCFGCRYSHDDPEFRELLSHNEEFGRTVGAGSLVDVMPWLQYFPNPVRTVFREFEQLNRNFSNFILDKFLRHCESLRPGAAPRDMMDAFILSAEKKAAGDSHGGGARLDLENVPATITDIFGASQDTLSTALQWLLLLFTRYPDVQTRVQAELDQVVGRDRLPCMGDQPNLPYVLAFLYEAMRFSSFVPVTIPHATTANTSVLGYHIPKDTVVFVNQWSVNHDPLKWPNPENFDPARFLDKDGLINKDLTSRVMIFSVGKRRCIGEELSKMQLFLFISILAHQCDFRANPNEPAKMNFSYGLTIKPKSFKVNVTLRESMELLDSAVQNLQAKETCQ
# Chain of aryl hydrocarbon receptor (AhR) (P35869 11-848): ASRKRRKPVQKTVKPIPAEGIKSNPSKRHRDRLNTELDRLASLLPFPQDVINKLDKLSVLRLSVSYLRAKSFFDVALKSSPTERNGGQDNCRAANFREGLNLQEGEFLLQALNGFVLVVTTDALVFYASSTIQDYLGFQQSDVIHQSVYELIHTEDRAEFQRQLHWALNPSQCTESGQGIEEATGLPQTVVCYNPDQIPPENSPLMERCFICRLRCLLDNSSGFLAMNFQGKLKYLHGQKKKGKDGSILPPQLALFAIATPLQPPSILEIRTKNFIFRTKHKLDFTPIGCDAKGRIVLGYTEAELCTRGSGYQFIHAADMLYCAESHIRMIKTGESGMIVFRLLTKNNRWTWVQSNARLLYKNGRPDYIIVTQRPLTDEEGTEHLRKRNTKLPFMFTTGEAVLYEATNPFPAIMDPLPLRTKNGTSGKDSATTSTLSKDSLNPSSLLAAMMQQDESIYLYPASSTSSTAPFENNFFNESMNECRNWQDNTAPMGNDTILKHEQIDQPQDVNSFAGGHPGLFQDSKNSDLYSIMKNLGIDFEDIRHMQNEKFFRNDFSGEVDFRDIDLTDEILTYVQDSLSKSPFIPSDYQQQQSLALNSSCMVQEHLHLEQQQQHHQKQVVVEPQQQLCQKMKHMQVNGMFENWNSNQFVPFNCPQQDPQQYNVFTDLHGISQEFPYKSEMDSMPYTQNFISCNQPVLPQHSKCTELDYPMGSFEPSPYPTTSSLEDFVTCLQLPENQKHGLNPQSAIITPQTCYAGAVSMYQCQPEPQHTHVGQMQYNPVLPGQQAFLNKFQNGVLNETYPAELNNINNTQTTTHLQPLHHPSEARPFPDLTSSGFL
# Chain of aryl hydrocarbon receptor (AhR) (P27540 whole entry partner): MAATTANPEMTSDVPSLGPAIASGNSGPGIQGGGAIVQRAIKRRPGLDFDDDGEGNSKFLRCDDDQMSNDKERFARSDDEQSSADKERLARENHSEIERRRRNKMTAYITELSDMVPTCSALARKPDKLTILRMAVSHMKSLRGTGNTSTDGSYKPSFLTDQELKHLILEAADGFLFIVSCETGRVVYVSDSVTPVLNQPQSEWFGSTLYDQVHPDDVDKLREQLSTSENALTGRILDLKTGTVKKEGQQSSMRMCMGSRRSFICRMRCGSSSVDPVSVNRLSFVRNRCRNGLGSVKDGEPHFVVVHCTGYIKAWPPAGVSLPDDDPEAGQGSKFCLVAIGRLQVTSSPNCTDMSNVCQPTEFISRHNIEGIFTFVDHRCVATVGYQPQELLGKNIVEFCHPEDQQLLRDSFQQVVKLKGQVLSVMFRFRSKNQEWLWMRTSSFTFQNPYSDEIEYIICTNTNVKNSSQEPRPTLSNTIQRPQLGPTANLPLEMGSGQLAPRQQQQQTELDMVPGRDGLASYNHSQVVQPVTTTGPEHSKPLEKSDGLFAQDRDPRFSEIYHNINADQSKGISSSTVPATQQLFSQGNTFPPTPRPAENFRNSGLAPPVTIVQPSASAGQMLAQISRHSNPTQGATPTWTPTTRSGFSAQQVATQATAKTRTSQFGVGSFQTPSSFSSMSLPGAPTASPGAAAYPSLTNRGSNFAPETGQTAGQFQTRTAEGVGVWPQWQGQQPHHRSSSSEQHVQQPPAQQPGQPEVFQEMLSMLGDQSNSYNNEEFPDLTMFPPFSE
structure (smiles),measurement,setting,value
"O=c1cc(C(F)(F)F)c2ccc3c(c2o1)C=CCO3 [Compound 20, 4-(Trifluoromethyl)pyrano[2,3-f]chromen-2(8H)-one]",influence on βNF-induced AhR activation,[1]; 10^−4 to 10^−10 M compound combined with 10^−8 M βNF,do not influence
same,concentration at which AhR is not activated,[1]; yeast AhR activation assays,lower than 1 μM
same,concentrations at which AhR-signaling pathway is not activated,[1]; yeast strain MYA-3637,lower than 10^−6 M
same,concentration not toxic to HepG2 cells,[2],≤ 10^−5 M
same,concentrations decreasing MROD activity in HepG2 cells,"[3]; 24 h incubation, read at 10, 30, 60 min",higher than 10^−6 M
same,concentrations decreasing MROD activity in HepG2 cells,[3]; in-cell P450 1A2 inhibition assays,higher than 1 μM
same,mode of inhibition of P450 1A2 (time dependence),[4],competitive inhibitor
"O=c1cc(-c2ccccc2)oc2ccc3ccccc3c12 [βNF, β-naphthoflavone, reference compound]",activation of AhR-signaling pathway (Abs405/Abs600),"[1]; 10^−8 M, positive control, compared with blank control (1% DMSO)",great activation
same,effect on MROD activity in HepG2 cells,"[3]; 10^−5 M, 24 h incubation, read at 10, 30, 60 min",increased
"Cc1cc2c(ccc3c(=O)cc(-c4ccccc4)oc32)o1 [Compound 3, 8-Methyl-2-phenyl-4H-furo[2,3-h]chromen-4-one]",concentrations showing considerable activation of AhR,[1]; yeast strain MYA-3637,higher than 10^−7 M
same,"inhibition at 6 min, 0.01 µM",[5],90%
same,effect on P450 1A2 activity without NADPH preincubation,[6],significant inhibition
same,effect on P450 1A1 activity,[7],does not influence
same,effect on P450 1B1 activity,[8],does not influence
same,mode of inhibition of P450 1A2 (time dependence),[4],time-dependent inhibitor
same,KI (time-dependent inhibition of P450 1A2),[4],440 nM
same,mode of inhibition of P450 1A2 (time dependence),"[4]; listed as 7,8-furanoflavone",time-dependently inhibits
same,mode of inhibition of P450 1A2 (time dependence),[4]; listed as 78FF,time- and NADPH-dependent inhibition
"Cc1cc2c(cc(O)c3c(=O)cc(-c4ccccc4)oc32)o1 [Compound 8, 5-Hydroxy-8-methyl-2-phenyl-4H-furo[2,3-h]chromen-4-one]","inhibition at 6 min, 0.01 µM",[5],90%
same,effect on P450 1A1 activity,[7],does not influence
same,effect on P450 1B1 activity,[8],does not influence
same,mode of inhibition of P450 1A2 (time dependence),[4],time- and NADPH-dependent inhibition
same,KI (time-dependent inhibition of P450 1A2),[4],120 nM
